Assay results from patent US7196198B2, “Benzoic acid derivatives, processes for the preparation thereof and pharmaceutical agents comprising the same as active ingredient” (Ono Pharmaceutical Co., Ltd., priority 2000, dated 2007).
Structures can show the parent of a compound that is named as a salt.

Assays:
[1] = biological target: T1, EP4 (Mus musculus, UniProt P32240); test: EP4 antagonizing activity assay using the cell expressing the prostanoid receptor subtypes (cAMP production in CHO cells); format: cell-based; details: inhibition of cAMP production with 100 nM PGE2 as agonist; CHO cell expressing receptor subtype
T1 construct: expressed in transfected cells; host or cells: CHO cells (membrane fraction)
Procedure: (ii) EP4 Antagonizing Activity Assay Using the Cell Expressing the Prostanoid Receptor Subtypes
The preparation of CHO cell expressing prostanoid receptor subtype was carried out according to the method of Nishigaki et al [FEBS lett., 364, 339–341(1995)]. The cells were cultured in 24-well microplates (10^5 cells/well) for two days before experiments. After washing each well with 500 μL of MEM (minimum essential medium), thereto was added 450 μL of assay medium (MEM containing 1 mmol/L IBMX, 1% BSA), and the mixture was incubated for 10 minutes at 37° C. Then PGE2 alone or a combination with a test compound (50 μL) were added, and the mixture was incubated for 10 minutes at 37° C. And reaction was terminated by addition of ice-cold TCA (10% W/V, 500 μL). This reaction mixture was freezed once (−80° C.) and thawed, and cells were harvested using a scraper. After centrifugation (13,000 r.p.m., for 3 minutes), cAMP content was measured using cAMP assay kit. That is, the supernatant (125 μL) was diluted with 500 μL of [^125I]-cAMP assay kit buffer (Amersham), and mixed with 0.5 mol/L tri-n-octylamine/chloroform solution (1 mL) was mixed. After removal of TCA from chloroform layer, cAMP content in the aqueous layer was quantified according to the method of kit manuals. […]

[2] = biological target: T1, EP4; test: Binding assay using cell expressing the prostanoid receptor subtypes ([3H]-PGE2 competition, CHO membrane fraction); details: membrane fraction of CHO cell expressing mouse EP4, Ki=IC50/(1+([C]/Kd))
Procedure: (i) Binding Assay Using Cell Expressing The Prostanoid Receptor Subtypes
The preparation of membrane fraction was carried out according to the method of Sugimoto et al [J. Biol. Chem. 267, 6463–6466 (1992)], using CHO cell expressing prostanoid receptor subtype (mouse EP1, EP2, EP3, EP4 and human IP).
The standard assay mixture containing membrane fraction (0.5 mg/mL), [^3H]-PGE2 in a final volume of 200 μl was incubated for 1 hour at room temperature. The reaction was terminated by addition of 3 mL of ice-cold buffer. The mixture was rapidly filtered through a glass filter (GF/B) under reduced pressure. The radioactivity associated with the filter was measured by liquid scintillation counter.
Kd and Bmax values were determined from Scatchard plots [Ann. N.Y. Acad. Sci. 51, 660(1949)]. Non-specific binding was calculated as the amount bound in the presence of an excess (2.5 μM) of unlabeled PGE2. In the experiment for competition of specific [^3H]-PGE2 binding by the compounds of the present invention, [^3H]-PGE2 was added at a concentration of […] and the compound of the present invention was added at various concentrations. The following buffer was used in all reactions. • Buffer: 10 mM potassium phosphate (pH 6.0), 1 mM EDTA, 10 mM MgCl2, 0.1 M NaCl. • The dissociation constant (Ki) (μM) of each compound was calculated by the following equation. Ki=IC50/(1+([C]/Kd))

T1 sequence (P32240 whole entry): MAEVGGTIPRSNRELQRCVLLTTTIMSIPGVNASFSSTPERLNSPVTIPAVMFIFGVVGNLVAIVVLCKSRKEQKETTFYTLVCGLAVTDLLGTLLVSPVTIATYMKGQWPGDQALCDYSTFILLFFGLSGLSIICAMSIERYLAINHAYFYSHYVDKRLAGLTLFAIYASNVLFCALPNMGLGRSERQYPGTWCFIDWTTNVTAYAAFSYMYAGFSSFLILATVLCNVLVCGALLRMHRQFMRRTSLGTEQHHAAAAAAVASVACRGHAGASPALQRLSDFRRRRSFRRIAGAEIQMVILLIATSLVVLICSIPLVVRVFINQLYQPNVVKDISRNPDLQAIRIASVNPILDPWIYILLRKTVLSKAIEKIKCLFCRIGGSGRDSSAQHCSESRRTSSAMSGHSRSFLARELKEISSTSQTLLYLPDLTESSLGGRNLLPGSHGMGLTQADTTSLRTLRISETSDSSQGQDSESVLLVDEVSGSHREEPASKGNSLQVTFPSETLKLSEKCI

IC50 [1] [nM] | Ki [2] [nM] | SMILES
10 | 2.7 | CC(C(=O)Nc1ccccc1Cc1ccccc1C(=O)O)c1cccc2ccccc12 (stereo not shown) [Example 2(1), 2-[2-[2-(1-naphthyl)propanoylamino]phenylmethyl]benzoic acid]
– | 6.5 | CC(C(=O)Nc1ccncc1Cc1ccccc1C(=O)O)c1cccc2ccccc12 (stereo not shown) [Example 2(15), 2-[4-[2-(1-naphthyl)propanoylamino]pyridin-3-ylmethyl]benzoic acid monohydrochloride]
– | 10.5 | CC(C(=O)Nc1ccccc1Cc1ccccc1C(=O)O)c1ccc(OCc2ccccc2)cc1 (stereo not shown) [Example 4(1), 2-[2-[2-(4-benzyloxyphenyl)propanoylamino]phenylmethyl]benzoic acid]
